In paper PMC4929710, “Specificity and mechanism of action of alpha-helical membrane-active peptides interacting with model and biological membranes by single-molecule force spectroscopy” (Scientific Reports, 2016):
Read-outs that look alike come from different tables or passages of the source.

Key:
[1] = test system: E. coli ATCC25922; type: cell-based
Description: (§1) Then, 10 μL of peptides was added. […] All assays were repeated in triplicate.

[2] = test system: P. aeruginosa ATCC27853; type: cell-based
Description: as §1

[3] = test system: S. aureus ATCC25923; type: cell-based
Description: as §1

[4] = test system: S. epidermidis ATCC12228; type: cell-based
Description: as §1

[5] = test system: gram-negative bacteria (P. aeruginosa and E. coli); type: cell-based
Description: as §1

[6] = test system: gram-positive bacteria (S. aureus and S. epidermidis); type: cell-based
Description: as §1

[7] = test system: A549 cells; type: cell-based, human; settings: 24 h
Description: (§2) The MTT cell proliferation assay was used to investigate the anticancer activity and cytotoxicity of MAPs against cancer cell lines (HeLa, A549, SGC-7901, and B16) and normal cells (3T3-L1), respectively. Cells (5 × 10^3) were seeded in 96-well plates and incubated overnight. The peptide samples were then added to cells with final concentrations ranging from 1 μM to 125 μM. After 24 h, 20 μL of 5 mg/mL MTT solution in PBS was added to the cells and treated for 4 h at 37 °C. The formazan crystals were dissolved by 150 μL of dimethyl sulfoxide (DMSO). Finally, the absorbance was determined at 492 nm. The results were expressed as IC50, representing the concentration at which cell viability was reduced by 50%. All assays were repeated in triplicate.

[8] = test system: HeLa cells; type: cell-based, human; settings: 24 h
Description: as §2

[9] = test system: SGC7901 cells; type: cell-based, human; settings: 24 h
Description: as §2

[10] = RP-HPLC retention time (peptide hydrophobicity); type: physicochemical; settings: used as measure of peptide hydrophobicity
Description: All peptides were synthesized by solid-phase peptide synthesis using Fmoc (9-fluorenyl-methoxycar-bonyl) chemistry and rink amide 4-methylbenzhydrylamine resin (MBHA resin; 0.8 mmol/g), as described previously. The crude peptides were purified on a LC-6A preparative reversed-phase high performance liquid chromatography (RP-HPLC, Shimadzu, Kyoto, Japan) using a Zorbax 300 SB-C8 column (250 × 9.4 mm inner diameter, […] particle size, 300 Å pore size), as described previously. The purity of the peptides was characterized by analytical RP-HPLC, mass spectrometry, and amino acid analysis.

[11] = test system: PC/Chol (8:1 w/w) LUVs; assay: Tryptophan fluorescence with LUVs; type: binding; settings: PC/Chol (8:1 w/w) LUVs versus HEPES buffer, 25 °C
Excerpt: (§3) In order to investigate the interaction between peptides and difference types of cell membranes, three different LUVs were used to mimic a prokaryotic cell membrane (PC/PG), a normal eukaryotic cell membrane (PC/Chol), and a cancer cell membrane (PC/SM/PE/PS/Chol). Tryptophan residue in the peptide sequence was used as a fluorescent probe to examine the interaction of peptides with model membranes. […] For example, in the PC/PG (7:3 w/w) anionic prokaryotic mimicking model membrane, peptides V13L and A12L/A20L had the strongest hydrophobicity with blue shift values of approximately 37 nm and 38 nm, respectively. Conversely, peptide V13E with a negative charge of glutamic acid residue, and peptide L6A/L17A with the lowest hydrophobicity had blue shift values of approximately 18 nm and 17 nm, respectively. […] In addition, within PC/SM/PE/PS/Chol (4.35:4.35:1:0.3:1 w/w) as a cancer-mimicking model membrane, the same results could be obtained in that peptide hydrophobicity correlates with anticancer activity and the blue shift values of peptides.
(§4) In accordance with previously described methods, LUVs were prepared with PC/PG (7:3 w/w), PC/Chol (8:1 w/w), and PC/SM/PE/PS/Chol (4.35:4.35:1:0.3:1 w/w) to mimic prokaryotic cell, […], membranes, respectively. Lipids using the freeze-thaw method as described previously, followed by extrusion through […] double-stacked nuclepore filters using an Mini-Extruder (Avanti Polar Lipids, Inc.)[11][27].
(§5) Three kinds of LUVs were prepared and cultured in HEPES buffer (pH 7.4, 10 mM HEPES, 150 mM NaCl) and the molar concentration was adjusted to 100 μM. A total of 14 μL of 100 μM MAPs was mixed with 686 μL of 100 μM liposomes at 25 °C for 10 min. A Shimadzu RF-5301PC, (excitation wavelength of […], emission wavelength of 300–450 nm) was used to measure the tryptophan fluorescence. Potassium iodide (KI) as a quencher was added to the previous reaction system for a final concentration of 0.02–0.08 M, respectively. The experimental data were plotted according to the Stern–Volmer equation F0/F = 1 + Ksv[Q], where F0 and F are the fluorescence intensity in the absence or presence of a quencher at concentration [Q], respectively, and Ksv is the Stern–Volmer quenching constant.

[12] = test system: PC/PG (7:3 w/w) LUVs; assay: Tryptophan fluorescence with LUVs; type: binding; settings: PC/PG (7:3 w/w) LUVs versus HEPES buffer, 25 °C
Excerpt: as §3, §4, §5

[13] = test system: PC/SM/PE/PS/Chol (4.35:4.35:1:0.3:1 w/w) LUVs; assay: Tryptophan fluorescence with LUVs; type: binding; settings: PC/SM/PE/PS/Chol (4.35:4.35:1:0.3:1 w/w) LUVs versus HEPES buffer, 25 °C
Excerpt: as §3, §4, §5

[14] = MH medium, 5 × 10^5 CFU/mL, 24 h, 37 °C, triplicate
[15] = geometric mean of MIC values from two gram-negative strains
[16] = geometric mean of MIC values from two gram-positive strains
[17] = MTT, 1-125 μM, triplicate, read-out: IC50 A549
[18] = MTT, 1-125 μM, triplicate, read-out: IC50 HeLa
[19] = MTT, 1-125 μM, triplicate, read-out: IC50 SGC7901

Compound	G− MIC E. coli ATCC25922 [1, 14] [µM]	G− MIC P. aeruginosa ATCC27853 [2, 14] [µM]	G+ MIC S. aureus ATCC25923 [3, 14] [µM]	G+ MIC S. epidermidis ATCC12228 [4, 14] [µM]	G− MIC GM [5, 15] [µM]	G+ MIC GM [6, 16] [µM]	IC50 [7, 17] [µM]	IC50 [8, 18] [µM]	IC50 [9, 19] [µM]	tR (RP-HPLC retention time) [10] [min]	PC/Chol Blue shift [11] [nm]	PC/PG Blue shift [12] [nm]	PC/SM/PE/PS/Chol Blueshift [13] [nm]	G− MIC E. coli ATCC25922 ([1]; ATCC25922, 24 h) [µM]	G− MIC P. aeruginosa ATCC27853 ([2]; ATCC27853, 24 h) [µM]	G+ MIC S. aureus ATCC25923 ([3]; ATCC25923, 24 h) [µM]	G+ MIC S. epidermidis ATCC12228 ([4]; ATCC12228, 24 h) [µM]	G− MIC GM [5] [µM]	G+ MIC GM [6] [µM]	IC50 [7] [µM]	also measured
CC[C@H](C)[C@H](NC(=O)[C@H](C)NC(=O)[C@H](CCCCN)NC(=O)[C@H](CC(C)C)NC(=O)[C@H](C)NC(=O)[C@@H](NC(=O)[C@H](Cc1cnc[nH]1)NC(=O)[C@H](CC(C)C)NC(=O)[C@@H](NC(=O)[C@@H](NC(=O)[C@H](CCCCN)NC(=O)[C@H](CCCCN)NC(=O)[C@H](C)NC(=O)[C@H](CO)NC(=O)[C@H](CCCCN)NC(=O)[C@H](Cc1ccccc1)NC(=O)[C@@H](NC(=O)[C@H](CCCCN)NC(=O)[C@H](CC(C)C)NC(=O)[C@H](Cc1ccccc1)NC(=O)[C@H](CO)NC(=O)[C@H](CCCCN)NC(=O)[C@H](Cc1c[nH]c2ccccc12)NC(=O)[C@H](CCCCN)NC(C)=O)[C@@H](C)O)[C@@H](C)O)C(C)C)[C@@H](C)O)C(=O)N[C@@H](CO)C(=O)N[C@@H](CO)C(N)=O [Peptide V13K]	8	8	32	4	8	11.31	24.4	13.1	18.9	38.790	4	28	27	–	–	–	–	–	–	–	–
Ac-KWKSFLKTFKSALKTVLHTALKAISS-NH2 [Peptide V13L]	–	–	–	–	–	–	–	–	–	53.177	11	–	–	4	8	8	2	5.66	4	2.8	IC50 [8]: 4.86 µM; IC50 [9]: 2 µM
Ac-KWKSFLKTFKSAEKTVLHTALKAISS-NH2 [Peptide V13E]	–	–	–	–	–	–	–	–	–	44.290	1	–	23	64	125	125	125	89.44	125	110	IC50 [8]: 73.7 µM; IC50 [9]: 92 µM
Ac-KWKSFAKTFKSAKKTVAHTALKAISS-NH2 [L6A/L17A]	125	125	125	125	125	125	> 125	> 125	> 125	32.210	0	~17	21	–	–	–	–	–	–	–	–
